In ChEMBL document CHEMBL5291721, “A preclinical secondary pharmacology resource illuminates target-adverse drug reaction associations of marketed drugs” (Nat Commun, 2023):
Blank lines part the entries; values can stand above or below the compound they belong to.

Key:
[1] = target: Vascular endothelial growth factor receptor 2 (Homo sapiens, UniProt P35968); assay type: functional
[2] = target: Adenosine receptor A2a (Homo sapiens, UniProt P29274)
[3] = target: Beta-2 adrenergic receptor (Homo sapiens, UniProt P07550)
[4] = target: T1, Cholecystokinin receptor type A (Homo sapiens, UniProt P32238)
T1 sequence (P32238 whole entry): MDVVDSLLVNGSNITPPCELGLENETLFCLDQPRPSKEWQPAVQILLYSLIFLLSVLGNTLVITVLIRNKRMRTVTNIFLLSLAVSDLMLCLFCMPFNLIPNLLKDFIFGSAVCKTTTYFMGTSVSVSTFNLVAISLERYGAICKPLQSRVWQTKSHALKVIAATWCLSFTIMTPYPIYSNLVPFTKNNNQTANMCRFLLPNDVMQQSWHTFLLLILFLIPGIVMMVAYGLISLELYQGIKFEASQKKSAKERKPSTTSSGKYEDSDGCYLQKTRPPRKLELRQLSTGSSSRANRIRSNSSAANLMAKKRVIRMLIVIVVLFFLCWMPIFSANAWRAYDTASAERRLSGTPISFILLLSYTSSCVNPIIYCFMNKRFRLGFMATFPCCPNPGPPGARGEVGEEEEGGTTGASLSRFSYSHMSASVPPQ

[5] = target: Glutamate receptor ionotropic, NMDA 1 (Rattus norvegicus, UniProt P35439)
[6] = target: Histamine H2 receptor (Homo sapiens, UniProt P25021); assay type: functional, cell-based
[7] = target: 5-hydroxytryptamine receptor 2B (Homo sapiens, UniProt P41595); assay type: functional, cell-based
[8] = target: T2, Neuropeptide Y receptor type 1 (Homo sapiens, UniProt P25929)
T2 sequence (P25929 whole entry): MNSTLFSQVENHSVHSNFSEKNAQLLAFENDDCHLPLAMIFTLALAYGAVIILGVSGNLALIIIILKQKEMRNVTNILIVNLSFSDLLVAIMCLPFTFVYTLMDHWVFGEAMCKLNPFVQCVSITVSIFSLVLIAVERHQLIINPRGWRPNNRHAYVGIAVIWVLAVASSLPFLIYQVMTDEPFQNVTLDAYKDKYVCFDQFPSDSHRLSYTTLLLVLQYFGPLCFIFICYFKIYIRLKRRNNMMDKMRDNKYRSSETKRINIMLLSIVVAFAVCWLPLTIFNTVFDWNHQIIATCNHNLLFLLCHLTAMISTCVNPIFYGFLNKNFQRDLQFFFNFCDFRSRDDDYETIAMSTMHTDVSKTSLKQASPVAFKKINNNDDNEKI

[9] = target: T3, Progesterone receptor (Homo sapiens, UniProt P06401); assay type: functional
T3 sequence (P06401 whole entry): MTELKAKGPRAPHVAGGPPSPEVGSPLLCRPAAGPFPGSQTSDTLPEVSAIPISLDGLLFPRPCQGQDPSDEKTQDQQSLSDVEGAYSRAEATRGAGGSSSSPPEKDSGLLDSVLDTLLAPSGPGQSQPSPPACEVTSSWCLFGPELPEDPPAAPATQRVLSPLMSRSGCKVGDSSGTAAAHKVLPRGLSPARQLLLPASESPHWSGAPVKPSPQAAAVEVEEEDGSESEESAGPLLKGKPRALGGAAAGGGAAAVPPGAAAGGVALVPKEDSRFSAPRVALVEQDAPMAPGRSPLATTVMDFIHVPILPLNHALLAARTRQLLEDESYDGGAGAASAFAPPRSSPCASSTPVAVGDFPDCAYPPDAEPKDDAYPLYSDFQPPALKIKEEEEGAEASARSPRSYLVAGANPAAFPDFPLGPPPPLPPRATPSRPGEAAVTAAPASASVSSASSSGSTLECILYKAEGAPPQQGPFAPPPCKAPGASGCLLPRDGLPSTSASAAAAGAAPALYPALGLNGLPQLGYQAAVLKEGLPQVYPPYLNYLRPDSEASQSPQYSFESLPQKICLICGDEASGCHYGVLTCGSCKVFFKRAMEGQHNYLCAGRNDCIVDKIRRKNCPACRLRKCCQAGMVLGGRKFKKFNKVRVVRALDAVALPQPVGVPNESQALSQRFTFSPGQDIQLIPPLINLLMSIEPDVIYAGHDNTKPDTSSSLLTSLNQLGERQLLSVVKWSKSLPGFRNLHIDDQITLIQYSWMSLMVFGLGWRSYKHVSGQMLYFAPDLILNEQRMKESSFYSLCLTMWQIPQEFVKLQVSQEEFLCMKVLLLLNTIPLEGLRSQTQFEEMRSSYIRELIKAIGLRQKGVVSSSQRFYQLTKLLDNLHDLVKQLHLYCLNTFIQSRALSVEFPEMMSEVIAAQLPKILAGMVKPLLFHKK

[10] = target: Sodium-dependent noradrenaline transporter (Homo sapiens, UniProt P23975)
[11] = target: T4, Amine oxidase [flavin-containing] A (Homo sapiens, UniProt P21397); assay type: functional
T4 sequence (P21397 whole entry): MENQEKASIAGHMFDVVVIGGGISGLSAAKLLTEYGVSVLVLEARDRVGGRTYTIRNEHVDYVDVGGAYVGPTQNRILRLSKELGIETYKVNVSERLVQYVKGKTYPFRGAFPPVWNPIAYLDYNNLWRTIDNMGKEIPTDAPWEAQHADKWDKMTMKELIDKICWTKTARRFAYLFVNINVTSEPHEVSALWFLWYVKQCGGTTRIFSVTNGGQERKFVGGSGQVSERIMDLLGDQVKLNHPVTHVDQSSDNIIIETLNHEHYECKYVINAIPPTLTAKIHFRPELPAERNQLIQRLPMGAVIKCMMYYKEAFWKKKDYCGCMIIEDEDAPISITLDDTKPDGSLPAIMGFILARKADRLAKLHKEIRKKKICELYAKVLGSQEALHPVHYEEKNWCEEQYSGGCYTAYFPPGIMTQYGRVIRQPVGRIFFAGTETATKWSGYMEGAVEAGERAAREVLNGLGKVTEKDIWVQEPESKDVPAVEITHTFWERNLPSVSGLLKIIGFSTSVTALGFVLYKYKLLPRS

[12] = target: D(3) dopamine receptor (Homo sapiens, UniProt P35462)
[13] = target: Histamine H3 receptor (Homo sapiens, UniProt Q9Y5N1)
Note: assay procedure not described here.

Chain of Sodium-dependent noradrenaline transporter (P23975 whole entry): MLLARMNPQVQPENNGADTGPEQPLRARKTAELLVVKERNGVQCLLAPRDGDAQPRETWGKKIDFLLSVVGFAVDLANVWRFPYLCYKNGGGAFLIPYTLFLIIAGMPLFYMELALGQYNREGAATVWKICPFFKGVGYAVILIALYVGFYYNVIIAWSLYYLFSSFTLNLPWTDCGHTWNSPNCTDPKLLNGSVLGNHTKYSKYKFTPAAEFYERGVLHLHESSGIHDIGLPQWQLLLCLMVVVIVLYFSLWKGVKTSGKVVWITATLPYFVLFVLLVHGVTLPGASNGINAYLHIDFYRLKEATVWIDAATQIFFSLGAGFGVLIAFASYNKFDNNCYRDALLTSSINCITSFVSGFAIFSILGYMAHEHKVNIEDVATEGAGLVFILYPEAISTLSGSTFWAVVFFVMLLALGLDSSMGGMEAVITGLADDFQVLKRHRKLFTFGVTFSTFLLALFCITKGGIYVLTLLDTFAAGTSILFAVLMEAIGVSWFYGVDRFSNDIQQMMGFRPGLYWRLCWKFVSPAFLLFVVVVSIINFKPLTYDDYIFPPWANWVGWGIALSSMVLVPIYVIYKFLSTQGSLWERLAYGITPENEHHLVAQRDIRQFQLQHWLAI
Chain of 5-hydroxytryptamine receptor 2B (P41595 whole entry): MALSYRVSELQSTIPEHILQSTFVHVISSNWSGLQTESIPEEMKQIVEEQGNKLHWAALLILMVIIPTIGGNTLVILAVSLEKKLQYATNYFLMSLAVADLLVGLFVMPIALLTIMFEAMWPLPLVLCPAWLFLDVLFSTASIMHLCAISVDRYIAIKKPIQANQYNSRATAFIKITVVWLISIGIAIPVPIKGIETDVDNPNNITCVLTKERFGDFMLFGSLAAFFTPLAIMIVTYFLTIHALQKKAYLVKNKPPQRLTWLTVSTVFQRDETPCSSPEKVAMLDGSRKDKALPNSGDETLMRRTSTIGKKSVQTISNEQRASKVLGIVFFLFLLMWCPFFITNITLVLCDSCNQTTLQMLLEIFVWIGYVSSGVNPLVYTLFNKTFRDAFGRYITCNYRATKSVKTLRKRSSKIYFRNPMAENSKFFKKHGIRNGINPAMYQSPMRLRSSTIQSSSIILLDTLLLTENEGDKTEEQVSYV
Chain of Beta-2 adrenergic receptor (P07550 whole entry): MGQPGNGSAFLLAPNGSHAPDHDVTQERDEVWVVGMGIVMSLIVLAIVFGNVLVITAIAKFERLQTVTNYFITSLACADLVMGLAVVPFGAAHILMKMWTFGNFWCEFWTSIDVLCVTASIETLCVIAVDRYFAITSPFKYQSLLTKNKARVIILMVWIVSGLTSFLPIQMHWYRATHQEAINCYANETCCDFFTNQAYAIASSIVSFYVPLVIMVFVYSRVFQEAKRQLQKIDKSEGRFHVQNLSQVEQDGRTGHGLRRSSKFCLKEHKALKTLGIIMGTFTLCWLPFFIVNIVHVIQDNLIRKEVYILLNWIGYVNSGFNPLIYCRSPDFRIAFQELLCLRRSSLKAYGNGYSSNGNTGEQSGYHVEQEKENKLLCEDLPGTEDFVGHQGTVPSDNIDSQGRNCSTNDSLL
Chain of D(3) dopamine receptor (P35462 whole entry): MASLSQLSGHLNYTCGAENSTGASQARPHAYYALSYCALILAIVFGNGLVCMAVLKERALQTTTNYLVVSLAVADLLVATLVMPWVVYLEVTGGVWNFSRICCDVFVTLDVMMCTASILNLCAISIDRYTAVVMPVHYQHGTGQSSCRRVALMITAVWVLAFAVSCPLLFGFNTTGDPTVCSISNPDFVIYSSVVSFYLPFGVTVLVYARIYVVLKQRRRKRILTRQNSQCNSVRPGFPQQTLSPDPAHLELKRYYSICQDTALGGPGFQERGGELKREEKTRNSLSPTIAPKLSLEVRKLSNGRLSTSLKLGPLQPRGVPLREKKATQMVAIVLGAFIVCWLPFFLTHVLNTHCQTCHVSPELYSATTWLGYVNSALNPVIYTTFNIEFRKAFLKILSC
Chain of Histamine H3 receptor (Q9Y5N1 whole entry): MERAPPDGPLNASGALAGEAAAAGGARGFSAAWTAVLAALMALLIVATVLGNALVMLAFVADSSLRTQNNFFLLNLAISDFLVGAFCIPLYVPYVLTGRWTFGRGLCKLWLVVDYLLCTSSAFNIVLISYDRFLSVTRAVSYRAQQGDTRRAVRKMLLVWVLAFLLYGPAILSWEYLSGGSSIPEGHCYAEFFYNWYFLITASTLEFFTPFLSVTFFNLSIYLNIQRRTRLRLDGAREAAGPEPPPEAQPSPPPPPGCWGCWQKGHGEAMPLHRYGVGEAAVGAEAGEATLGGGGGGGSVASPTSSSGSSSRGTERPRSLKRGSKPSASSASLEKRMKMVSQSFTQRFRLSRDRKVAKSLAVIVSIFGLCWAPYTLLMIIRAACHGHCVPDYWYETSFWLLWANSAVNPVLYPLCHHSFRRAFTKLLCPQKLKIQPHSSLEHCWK
Chain of Vascular endothelial growth factor receptor 2 (P35968 whole entry): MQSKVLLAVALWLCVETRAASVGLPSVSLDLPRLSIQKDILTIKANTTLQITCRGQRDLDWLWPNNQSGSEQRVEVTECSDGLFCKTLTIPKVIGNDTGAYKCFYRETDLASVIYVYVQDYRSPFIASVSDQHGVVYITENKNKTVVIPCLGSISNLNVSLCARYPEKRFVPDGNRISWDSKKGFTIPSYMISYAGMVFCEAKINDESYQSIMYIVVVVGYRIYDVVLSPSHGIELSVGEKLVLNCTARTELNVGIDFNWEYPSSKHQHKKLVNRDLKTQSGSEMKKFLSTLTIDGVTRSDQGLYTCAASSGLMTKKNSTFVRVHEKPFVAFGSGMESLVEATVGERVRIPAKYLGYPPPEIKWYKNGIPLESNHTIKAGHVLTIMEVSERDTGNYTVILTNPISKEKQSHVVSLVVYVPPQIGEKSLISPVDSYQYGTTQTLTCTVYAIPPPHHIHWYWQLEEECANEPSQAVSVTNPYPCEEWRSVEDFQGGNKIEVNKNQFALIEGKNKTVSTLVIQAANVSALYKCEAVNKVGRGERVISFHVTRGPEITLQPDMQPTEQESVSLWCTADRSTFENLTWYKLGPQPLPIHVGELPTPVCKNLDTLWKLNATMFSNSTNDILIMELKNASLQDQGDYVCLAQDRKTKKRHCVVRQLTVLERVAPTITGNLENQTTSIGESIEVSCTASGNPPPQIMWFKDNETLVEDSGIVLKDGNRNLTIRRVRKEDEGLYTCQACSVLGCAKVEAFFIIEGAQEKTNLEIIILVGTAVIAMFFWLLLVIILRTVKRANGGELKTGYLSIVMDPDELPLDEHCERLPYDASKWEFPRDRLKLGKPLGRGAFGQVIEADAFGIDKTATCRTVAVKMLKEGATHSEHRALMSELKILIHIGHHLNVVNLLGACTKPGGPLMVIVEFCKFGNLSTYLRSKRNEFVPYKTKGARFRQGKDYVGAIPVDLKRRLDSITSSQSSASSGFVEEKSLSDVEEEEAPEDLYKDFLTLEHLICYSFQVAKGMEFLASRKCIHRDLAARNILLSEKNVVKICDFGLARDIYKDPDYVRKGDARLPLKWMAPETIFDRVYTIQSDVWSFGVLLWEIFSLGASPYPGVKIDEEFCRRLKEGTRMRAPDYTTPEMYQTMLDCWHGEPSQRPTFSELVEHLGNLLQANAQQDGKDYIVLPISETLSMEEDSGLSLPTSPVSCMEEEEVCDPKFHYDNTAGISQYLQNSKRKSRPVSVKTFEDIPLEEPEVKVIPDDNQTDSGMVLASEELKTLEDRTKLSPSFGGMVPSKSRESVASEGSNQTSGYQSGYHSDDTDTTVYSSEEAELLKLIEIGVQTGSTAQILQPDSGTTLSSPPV
Chain of Adenosine receptor A2a (P29274 whole entry): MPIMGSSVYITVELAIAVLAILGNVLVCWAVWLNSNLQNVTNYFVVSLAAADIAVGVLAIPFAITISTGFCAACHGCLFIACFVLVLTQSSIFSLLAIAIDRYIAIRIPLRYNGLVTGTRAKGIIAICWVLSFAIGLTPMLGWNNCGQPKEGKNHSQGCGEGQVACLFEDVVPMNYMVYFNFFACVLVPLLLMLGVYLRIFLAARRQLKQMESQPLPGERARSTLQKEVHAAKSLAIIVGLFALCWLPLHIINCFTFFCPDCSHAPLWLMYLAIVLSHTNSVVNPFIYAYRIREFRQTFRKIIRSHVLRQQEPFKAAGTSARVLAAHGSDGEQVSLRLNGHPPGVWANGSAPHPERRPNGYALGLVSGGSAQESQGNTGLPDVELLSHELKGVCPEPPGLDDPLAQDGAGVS
Chain of Histamine H2 receptor (P25021 whole entry): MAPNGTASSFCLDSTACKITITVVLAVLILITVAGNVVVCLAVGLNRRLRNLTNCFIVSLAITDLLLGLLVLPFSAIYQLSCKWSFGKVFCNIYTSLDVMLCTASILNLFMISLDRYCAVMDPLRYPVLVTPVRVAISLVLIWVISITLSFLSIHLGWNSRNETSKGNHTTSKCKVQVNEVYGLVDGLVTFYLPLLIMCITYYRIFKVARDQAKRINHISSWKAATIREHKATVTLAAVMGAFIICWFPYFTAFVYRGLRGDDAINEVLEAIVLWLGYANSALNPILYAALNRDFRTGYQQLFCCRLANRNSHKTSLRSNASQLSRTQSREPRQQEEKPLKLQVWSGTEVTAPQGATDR

Compound: Cc1cc(=O)[nH]c(=S)[nH]1 [METHYLTHIOURACIL]
AC50 [1]: > 30 µM

Compound: CN(C)c1ccc(O)c2c1C[C@H]1C[C@H]3[C@H](N(C)C)C(O)=C(C(N)=O)C(=O)[C@@]3(O)C(O)=C1C2=O [MINOCYCLINE]
AC50 [1]: > 30 µM

Compound: CCNC(=O)/C=C(C)/C=C/C=C(C)/C=C/c1c(C)cc(OC)c(C)c1C [MOTRETINIDE]
AC50 [1]: > 30 µM

Compound: C=CC(=O)Nc1cccc(Oc2nc(Nc3ccc(N4CCN(C)CC4)cc3)nc3ccsc23)c1 [OLMUTINIB]
AC50 [1]: 2.06 µM

Compound: COc1ccc2[nH]c([S+]([O-])Cc3ncc(C)c(OC)c3C)nc2c1 (stereo not drawn) [OMEPRAZOLE]
AC50 [1]: > 30 µM

Compound: CCCCC1C(=O)N(c2ccccc2)N(c2ccc(O)cc2)C1=O (stereo not drawn) [OXYPHENBUTAZONE ANHYDROUS]
AC50 [1]: > 30 µM

Compound: O=C(O)CN(CCN(CC(=O)O)CC(=O)O)CCN(CC(=O)O)CC(=O)O [PENTETIC ACID]
AC50 [1]: > 30 µM

Compound: Nc1cccc2c1C(=O)N(C1CCC(=O)NC1=O)C2=O (stereo not drawn) [POMALIDOMIDE]
AC50 [1]: > 30 µM

AC50 [2]: > 10 µM
AC50 [3]: > 10 µM
AC50 [4]: > 10 µM
AC50 [5]: > 10 µM
AC50 [6]: > 10 µM
AC50 [7]: > 10 µM
AC50 [8]: > 10 µM
AC50 [9]: > 10 µM
AC50 [10]: > 10 µM
AC50 [11]: > 10 µM
AC50 [12]: > 30 µM
AC50 [13]: > 10 µM
Compound: CCCc1cc(=O)[nH]c(=S)[nH]1 [PROPYLTHIOURACIL]

AC50 [2]: > 30 µM
AC50 [3]: > 30 µM
AC50 [4]: > 30 µM
AC50 [5]: > 30 µM
AC50 [6]: > 30 µM
AC50 [7]: > 30 µM
AC50 [8]: > 30 µM
AC50 [9]: > 30 µM
AC50 [10]: > 30 µM
AC50 [11]: > 30 µM
AC50 [12]: > 30 µM
AC50 [13]: > 30 µM
Compound: Cn1cc(C(=O)[C@@H]2CCc3nc[nH]c3C2)c2ccccc21 [RAMOSETRON]

AC50 [2]: > 30 µM
AC50 [3]: > 30 µM
AC50 [4]: > 30 µM
AC50 [5]: > 30 µM
AC50 [6]: > 30 µM
AC50 [7]: > 30 µM
AC50 [8]: > 30 µM
AC50 [9]: > 30 µM
AC50 [10]: > 30 µM
AC50 [11]: 8 µM
AC50 [12]: > 30 µM
AC50 [13]: > 30 µM
Compound: CN(CCOc1ccc(CC2SC(=O)NC2=O)cc1)c1ccccn1 (stereo not drawn) [ROSIGLITAZONE]

Compound: C[Se]CC[C@H](N)C(=O)O [SELENOMETHIONINE]
AC50 [1]: > 30 µM

Compound: C[N+](C)(C)CCOC(=O)CCC(=O)OCC[N+](C)(C)C [SUXAMETHONIUM]
AC50 [1]: > 30 µM

Compound: Cc1ccsc1C(=CCCN1CCC[C@@H](C(=O)O)C1)c1sccc1C [TIAGABINE]
AC50 [1]: > 30 µM

Compound: Cc1ccc(C(=O)c2ccc(CC(=O)O)n2C)cc1 [TOLMETIN]
AC50 [1]: > 30 µM

Compound: Cc1ccccc1C(=O)Nc1ccc(C(=O)N2CCCC(O)c3cc(Cl)ccc32)c(C)c1 (stereo not drawn) [TOLVAPTAN]
AC50 [1]: > 30 µM

Compound: C[C@]12C=CC(=O)C=C1CC[C@H]1[C@@H]3C[C@@H](O)[C@](O)(C(=O)CO)[C@@]3(C)C[C@H](O)[C@@]12F [TRIAMCINOLONE]
AC50 [1]: > 30 µM

Compound: CC[C@]12CCCN3CCc4c(n(c5ccccc45)[C@@](O)(C(=O)OC)C1)[C@@H]32 [VINCAMINE]
AC50 [1]: > 30 µM

Compound: CCC1=C[C@@H]2CN(C1)Cc1c([nH]c3ccccc13)[C@@](C(=O)OC)(c1cc3c(cc1OC)N(C)[C@H]1[C@@](O)(C(=O)OC)[C@H](OC(C)=O)[C@]4(CC)C=CCN5CC[C@]31[C@@H]54)C2 [VINORELBINE]
AC50 [1]: > 30 µM

Compound: O=C1Cc2cc(CCN3CCN(c4nsc5ccccc45)CC3)c(Cl)cc2N1 [ZIPRASIDONE]
AC50 [2]: > 30 µM
AC50 [3]: > 30 µM
AC50 [4]: > 30 µM
AC50 [5]: > 10 µM
AC50 [6]: > 10 µM
AC50 [7]: > 30 µM
AC50 [1]: 11.2 µM
AC50 [8]: > 30 µM
AC50 [10]: 0.89 µM
AC50 [11]: > 10 µM
AC50 [13]: > 30 µM
